Results: ChEMBL document CHEMBL3400076, “Three-dimensional rational approach to the discovery of potent substituted cyclopropyl urea soluble epoxide hydrolase inhibitors” (Bioorg Med Chem Lett, 2015)
pIC50: −log10 of the molar value.

Assays:
[1] = target: T1, Bifunctional epoxide hydrolase 2 (Rattus norvegicus, UniProt P80299); test: Inhibition of recombinant rat soluble epoxide hydrolase assessed as increase in fluorescence intensity by fluorescence plate reader
T1 sequence (P80299 whole entry): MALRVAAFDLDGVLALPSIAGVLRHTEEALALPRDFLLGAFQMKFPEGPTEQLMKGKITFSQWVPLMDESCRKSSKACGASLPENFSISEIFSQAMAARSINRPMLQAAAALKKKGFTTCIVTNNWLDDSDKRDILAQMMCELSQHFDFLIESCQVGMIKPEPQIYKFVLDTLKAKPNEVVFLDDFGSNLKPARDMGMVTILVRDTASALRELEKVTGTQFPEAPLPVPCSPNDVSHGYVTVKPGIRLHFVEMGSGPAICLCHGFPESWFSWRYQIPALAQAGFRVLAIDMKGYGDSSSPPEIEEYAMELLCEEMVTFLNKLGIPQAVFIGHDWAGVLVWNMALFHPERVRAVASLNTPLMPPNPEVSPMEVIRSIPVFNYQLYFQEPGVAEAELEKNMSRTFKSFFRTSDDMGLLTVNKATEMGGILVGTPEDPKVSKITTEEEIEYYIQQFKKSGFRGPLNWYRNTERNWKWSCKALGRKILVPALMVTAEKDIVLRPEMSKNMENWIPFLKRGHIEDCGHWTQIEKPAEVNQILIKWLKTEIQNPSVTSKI

[2] = target: T2, Bifunctional epoxide hydrolase 2 (Homo sapiens, UniProt P34913); test: Inhibition of recombinant human soluble epoxide hydrolase assessed as increase in fluorescence intensity by fluorescence plate reader
T2 sequence (P34913 whole entry): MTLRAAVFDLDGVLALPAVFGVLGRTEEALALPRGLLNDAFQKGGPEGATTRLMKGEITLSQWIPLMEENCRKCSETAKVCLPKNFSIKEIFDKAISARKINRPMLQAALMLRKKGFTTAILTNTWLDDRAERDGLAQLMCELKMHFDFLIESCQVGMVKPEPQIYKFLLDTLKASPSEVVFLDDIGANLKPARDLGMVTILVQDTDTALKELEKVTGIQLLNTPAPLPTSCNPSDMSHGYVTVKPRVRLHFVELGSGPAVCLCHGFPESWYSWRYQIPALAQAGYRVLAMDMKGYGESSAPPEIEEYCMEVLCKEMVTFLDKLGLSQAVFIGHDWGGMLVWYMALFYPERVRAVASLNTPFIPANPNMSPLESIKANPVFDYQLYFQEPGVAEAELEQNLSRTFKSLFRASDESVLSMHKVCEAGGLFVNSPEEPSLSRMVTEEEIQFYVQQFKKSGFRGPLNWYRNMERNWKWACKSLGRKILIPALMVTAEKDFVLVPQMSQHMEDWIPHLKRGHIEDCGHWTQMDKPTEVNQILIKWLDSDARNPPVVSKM

| SMILES | pIC50 [1] | pIC50 [2] |
| --- | --- | --- |
| O=C(O)CCc1ccc(OC2CCN(C(=O)N[C@@H]3[C@@H](c4ccccc4)[C@H]3c3ccccc3)CC2)cc1 | 8.41 | 8.64 |
| O=C(O)CCc1ccc(OC2CCN(C(=O)N[C@@H]3[C@@H](c4ccc(F)cc4)[C@H]3c3ccc(F)cc3)CC2)cc1 | 8.49 | 8.68 |
| O=C(N[C@@H]1[C@@H](c2ccccc2)[C@H]1c1ccccc1)N1CCCCC1 | 9.70 | 8.74 |
| CN1CCN(C(=O)N[C@@H]2[C@@H](c3ccccc3)[C@H]2c2ccccc2)CC1 | 7.56 | 7.84 |
| CS(=O)(=O)N[C@@H]1CCCN(C(=O)N[C@@H]2[C@@H](c3ccccc3)[C@H]2c2ccccc2)C1 (mixture of isomers) | 9.10 | 8.85 |
| O=C(N[C@@H]1[C@@H](c2ccccc2)[C@H]1c1ccccc1)N1CCC[C@@H](NS(=O)(=O)c2ccc(F)cc2)C1 (mixture of isomers) | 9.70 | 9.15 |
| O=C(O)CCc1ccc(OC2CCN(C(=O)N[C@H]3C[C@@H]3c3ccccc3)CC2)cc1 (racemic) | 7.25 | 7.72 |
| CC1(C)[C@H](NC(=O)N2CCC(Oc3ccc(CCC(=O)O)cc3)CC2)[C@H]1c1ccccc1 (racemic) | < 7.00 | < 7.00 |
| C[C@H]1[C@H](NC(=O)N2CCC(Oc3ccc(CCC(=O)O)cc3)CC2)[C@H]1c1ccccc1 (racemic) | 7.93 | 7.92 |
| C[C@@H]1[C@H](NC(=O)N2CCC(Oc3ccc(CCC(=O)O)cc3)CC2)[C@H]1c1ccccc1 (racemic) | < 7.00 | 7.12 |
